Assay results as given in patent publication US20260131007A1, “Mannose 6-Phosphate Receptor Binding Compounds for the Degradation of Extracellular Proteins” (Avilar Therapeutics, Inc., priority 2023, published 2026).

The compounds below were run against T1, Insulin-like growth factor 2 receptor (IGF-1IR, cation-independent mannose-6-phosphate receptor, CI-MPR; hIGF-IIR) (Homo sapiens, UniProt P11717) (assay: HTRF-based ternary complex inhibition assay for relative affinity of IGF-IIR ligands). Conditions: competition with MTAC probe for His-tagged hIGF-IIR; biotinylated IgG1; apparent binding affinity; read-out: TCF INH (HTRF) IC50.
T1 construct: purchased R&D Systems 6418-GR
Procedure: The apparent binding affinity of Insulin-like growth factor 2 receptor (IGF-1IR, also called the cation- independent mannose-6-phosphate receptor (CI-MPR)) ligands was determined indirectly by competing with a probe molecule for binding to IGF-1IR. The probe is a Mannose 6-Phosphate Ligand (“Ligand”) and binds to hIGF-IIR and IgG1 to form a hIGF-IIR: Ligand: IgG1 ternary complex. The ternary complex was detected by an HTRF readout. The ternary complex is disrupted in the presence of IGF-1IR ligand, resulting in decreased HTRF signal. IGF-1IR ligands of 3-fold dilution series were prepared from 10 mM DMSO stock on a 384-well LDV microplate using Echo Acoustic Liquid Handler (Beckman Coulter Life Sciences) followed by transfer of 600 nL of the solutions to an OptiPlate 384-well microplate (PerkinElmer, 6007290). Manose-6-phosphate (M6P; J&K, 530168) and glucose-6-phosphate (G6P; Sigma, V900924) were prepared from 100 mM stock in the same manner and were used as positive and negative controls, respectively. The wells used as 0% and 100% inhibition controls were prepared by adding 600 nL DMSO. 20 nL of 50 μM MTAC probe was transferred to all wells except the wells used as 100% Inhibition control. 9.4 μL working solution containing 65.1 nM of Biotinylated-IgG1 (Viva 20211108) and 65.1 nM of His-tagged hIGF-IIR (R&D Systems, 6418-GR) in assay buffer 50 mM Tris, pH 7.5, 150 mM NaCl, 50 mM CaCl2, 0.01% Tween-20 was transferred to all wells. The plate was incubated at room temperature for 60 min with gentle shaking to allow molecular interaction to reach equilibration. Following this, 10 μL of HTRF detection solution containing 15 nM Streptavidin-d2 (PerkinElmer, 610SADLA) and 0.7 nM MAb Anti 6HIS—Tb cryptate (PerkinElmer, 61HISTLA) in PPI Terbium detection buffer (PerkinElmer, 61DB10RDF) was added. The assay plate was incubated at room temperature with gentle shaking for 60 min to allow HTRF signal to develop. The plate was gently spun on a centrifuge then placed on a EnVision plate reader (Perkin Elmer, EnVision 2104) to read fluorescence ratio of 665 nm/615 nm. Percent inhibitions were calculated with this equation: % I=100* [1−(X−100% I/(0% I−100% I)] where X is the […] in the presence of IGF-1IR ligand. The apparent binding affinity (presented as IC50) was calculated by fitting the % inhibition data with a non-linear 4-parameter inhibition equation using GraphPad Prism (GraphPad Software, LLC; version 9.4.1).
`COC(=O)c1ccc(O[C@H]2O[C@H](CNc3c(O)c(=O)c3=O)[C@@H](O)[C@H](O)[C@@H]2O)cc1` [Compound A7, methyl 4-(((3S,4S,5S,6R)-3,4,5-trihydroxy-6-(((2-hydroxy-3,4-dioxocyclobut-1-en-1-yl)amino)methyl)tetrahydro-2H-pyran-2-yl)oxy)benzoate] gave an IC50 of 100 to 300 µM. With `O=P(O)(O)CC[C@H]1O[C@H](Oc2ccc3c(c2)Cc2ccccc2-3)[C@@H](O)[C@@H](O)[C@@H]1O` [Compound A19, (2-((2R,3S,4S,5S,6R)-6-((9H-fluoren-2-yl)oxy)-3,4,5-trihydroxytetrahydro-2H-pyran-2-yl)ethyl)phosphonic acid] the IC50 was less than 10 µM. Compound `CCCP(=O)(O)CC[C@H]1OC(Oc2ccc(OC)cc2)[C@@H](O)[C@@H](O)[C@@H]1O` (stereo partly drawn) [Compound A57, propyl(2-((2R,3S,4S,5S)-3,4,5-trihydroxy-6-(4-methoxyphenoxy)tetrahydro-2H-pyran-2-yl)ethyl)phosphinic acid] has an IC50 of less than 10 µM. In the case of `C#CCP(=O)(O)CC[C@H]1OC(Oc2ccc(OC)cc2)[C@@H](O)[C@@H](O)[C@@H]1O` (stereo partly drawn) [Compound A77, prop-2-yn-1-yl(2-((2R,3S,4S,5S)-3,4,5-trihydroxy-6-(4-methoxyphenoxy)tetrahydro-2H-pyran-2-yl)ethyl)phosphinic acid], the IC50 is reported as 10 to 100 µM. Compound `COc1ccc(OC2O[C@H](CCP(=O)(O)CC#N)[C@@H](O)[C@H](O)[C@@H]2O)cc1` (stereo partly drawn) [Compound A48, (cyanomethyl) (2-((2R,3S,4S,5S)-3,4,5-trihydroxy-6-(4-methoxyphenoxy)tetrahydro-2H-pyran-2-yl)ethyl)phosphinic acid] has an IC50 of 10 to 100 µM. Compound `CO[C@@H]1O[C@H](CCS(=O)(=O)Nc2ncccn2)[C@@H](O)[C@H](O)[C@@H]1O` [Compound A8, N-(pyrimidin-2-yl)-2-((2R,3S,4S,5S,6R)-3,4,5-trihydroxy-6-methoxytetrahydro-2H-pyran-2-yl)ethane-1-sulfonamide] has an IC50 of 10 to 100 µM. `O=C(NS(=O)(=O)CC[C@H]1O[C@H](O)[C@@H](O)[C@@H](O)[C@@H]1O)c1ccno1` [Compound A11, N-((2-((2R,3S,4S,5S,6S)-3,4,5,6-tetrahydroxytetrahydro-2H-pyran-2-yl)ethyl)sulfonyl)isoxazole-5-carboxamide] was tested, and the IC50 was 10 to 100 µM. `COc1ccc(OC2O[C@H](CCP(=O)(O)CC#C[Si](C)(C)C)[C@@H](O)[C@H](O)[C@@H]2O)cc1` (stereo partly drawn) [Compound A75, 2-[(2R,3S,4S,5S)-3,4,5-trihydroxy-6-(4-methoxyphenoxy)tetrahydropyran-2-yl]ethyl-(3-trimethylsilylprop-2-ynyl)phosphinic acid] was tested, and the IC50 was 10 to 100 µM. For `O=P(O)(O)CC[C@H]1OC(C#Cc2ccccc2)[C@@H](O)[C@@H](O)[C@@H]1O` (stereo partly drawn) [Compound A16, (2-((2R,3S,4S,5S)-3,4,5-trihydroxy-6-(phenylethynyl)tetrahydro-2H-pyran-2-yl)ethyl)phosphonic acid], the IC50 was less than 10 µM. For `O=P(O)(O)CC[C@H]1O[C@H](c2cn(CCc3ccccc3)nn2)[C@@H](O)[C@@H](O)[C@@H]1O` [Compound A17, (2-((2R,3S,4S,5S,6R)-3,4,5-trihydroxy-6-(1-phenethyl-1H-1,2,3-triazol-4-yl)tetrahydro-2H-pyran-2-yl)ethyl)phosphonic acid], the IC50 was less than 10 µM. With `COc1ccc(OC2O[C@H](CCP(=O)(O)Cc3ccccc3)[C@@H](O)[C@H](O)[C@@H]2O)cc1` (stereo partly drawn) [Compound A81, benzyl(2-((2R,3S,4S,5S)-3,4,5-trihydroxy-6-(4-methoxyphenoxy)tetrahydro-2H-pyran-2-yl)ethyl)phosphinic acid] the IC50 was less than 10 µM. With `O=P(O)(O)CC[C@H]1O[C@H](Oc2ccc3c(c2)Cc2cc(O)ccc2-3)[C@@H](O)[C@@H](O)[C@@H]1O` [Compound A22, (2-((2R,3S,4S,5S,6R)-3,4,5-trihydroxy-6-((7-hydroxy-9H-fluoren-2-yl)oxy)tetrahydro-2H-pyran-2-yl)ethyl)phosphonic acid] the IC50 was less than 10 µM. Work on `C#CCCCCNC(=O)Nc1ccc2c(c1)Cc1cc(O[C@H]3O[C@H](CCP(=O)(O)O)[C@@H](O)[C@H](O)[C@@H]3O)ccc1-2` [Compound A83, (2-((2R,3S,4S,5S,6R)-6-((7-(3-(hex-5-yn-1-yl)ureido)-9H-fluoren-2-yl)oxy)-3,4,5-trihydroxytetrahydro-2H-pyran-2-yl)ethyl)phosphonic acid] yielded an IC50 of less than 10 µM. `O=C(NS(=O)(=O)CC[C@H]1O[C@H](O)[C@@H](O)[C@@H](O)[C@@H]1O)c1ccccc1` [Compound A12, N-((2-((2R,3S,4S,5S,6S)-3,4,5,6-tetrahydroxytetrahydro-2H-pyran-2-yl)ethyl)sulfonyl)benzamide] was tested, and the IC50 was 100 to 300 µM. `C#CCOc1cccc(CP(=O)(O)CC[C@H]2OC(Oc3ccc(OC)cc3)[C@@H](O)[C@@H](O)[C@@H]2O)c1` (stereo partly drawn) [Compound A59, (3-prop-2-ynoxyphenyl)methyl-[2-[(2R,3S,4S,5S)-3,4,5-trihydroxy-6-(4-methoxyphenoxy)tetrahydropyran-2-yl]ethyl]phosphinic acid] gave an IC50 of less than 10 µM. `COc1ccc(OC2O[C@H](CCP(=O)(O)CC3CCCC3)[C@@H](O)[C@H](O)[C@@H]2O)cc1` (stereo partly drawn) [Compound A82, (cyclopentylmethyl) (2-((2R,3S,4S,5S)-3,4,5-trihydroxy-6-(4-methoxyphenoxy)tetrahydro-2H-pyran-2-yl)ethyl)phosphinic acid] was tested, and the IC50 was less than 10 µM. `CO[C@H]1O[C@H](CCS(=O)(=O)Nc2ncccn2)[C@@H](O)[C@H](O)[C@@H]1O` [Compound A9, N-(pyrimidin-2-yl)-2-((2R,3S,4S,5S,6S)-3,4,5-trihydroxy-6-methoxytetrahydro-2H-pyran-2-yl)ethane-1-sulfonamide] showed an IC50 of 100 to 300 µM. `O=P(O)(O)CC[C@H]1O[C@H](c2cn(C3CCNCC3)nn2)[C@@H](O)[C@@H](O)[C@@H]1O` [Compound A86, (2-((2R,3S,4S,5S,6R)-3,4,5-trihydroxy-6-(1-(piperidin-4-yl)-1H-1,2,3-triazol-4-yl)tetrahydro-2H-pyran-2-yl)ethyl)phosphonic acid] showed an IC50 of less than 10 µM. In the case of `O=P(O)(CC[C@H]1O[C@H](Oc2ccccc2)[C@@H](O)[C@@H](O)[C@@H]1O)Cc1ccccc1O` [Compound A46, (2-hydroxybenzyl) (2-((2R,3S,4S,5S,6R)-3,4,5-trihydroxy-6-phenoxytetrahydro-2H-pyran-2-yl)ethyl)phosphinic acid], the IC50 is reported as less than 10 µM. For `O=P(O)(O)CC[C@H]1OC(c2cc3c(cc2O)Cc2ccccc2-3)[C@@H](O)[C@@H](O)[C@@H]1O` (stereo partly drawn) [Compound A15, (2-((2R,3S,4S,5S)-3,4,5-trihydroxy-6-(2-hydroxy-9H-fluoren-3-yl)tetrahydro-2H-pyran-2-yl)ethyl)phosphonic acid], the IC50 was less than 10 µM. Compound `COc1ccc(OC2O[C@H](CCP(=O)(O)CC(F)(F)F)[C@@H](O)[C@H](O)[C@@H]2O)cc1` (stereo partly drawn) [Compound A80, (2,2,2-trifluoroethyl) (2-((2R,3S,4S,5S)-3,4,5-trihydroxy-6-(4-methoxyphenoxy)tetrahydro-2H-pyran-2-yl)ethyl)phosphinic acid] has an IC50 of 10 to 100 µM. `COc1ccc(OC2O[C@H](CCP(=O)(O)C(O)c3ccccc3)[C@@H](O)[C@H](O)[C@@H]2O)cc1` (stereo partly drawn) [Compound A74, (hydroxy (phenyl)methyl) (2-((2R,3S,4S,5S)-3,4,5-trihydroxy-6-(4-methoxyphenoxy)tetrahydro-2H-pyran-2-yl)ethyl)phosphinic acid] gave an IC50 of less than 10 µM. For `CP(=O)(O)CC[C@H]1O[C@H](Oc2ccccc2)[C@@H](O)[C@@H](O)[C@@H]1O` [Compound A44, methyl(2-((2R,3S,4S,5S,6R)-3,4,5-trihydroxy-6-phenoxytetrahydro-2H-pyran-2-yl)ethyl)phosphinic acid], the IC50 was 10 to 100 µM. `COc1ccc(OC2O[C@H](CCP(=O)(O)CC3CC3)[C@@H](O)[C@H](O)[C@@H]2O)cc1` (stereo partly drawn) [Compound A56, (cyclopropylmethyl) (2-((2R,3S,4S,5S)-3,4,5-trihydroxy-6-(4-methoxyphenoxy)tetrahydro-2H-pyran-2-yl)ethyl)phosphinic acid] gave an IC50 of less than 10 µM. `O=P(O)(O)CC[C@H]1O[C@H](/C=C/c2ccccc2)[C@@H](O)[C@@H](O)[C@@H]1O` [Compound A21, (2-((2R,3S,4S,5S,6R)-3,4,5-trihydroxy-6-((E)-styryl)tetrahydro-2H-pyran-2-yl)ethyl)phosphonic acid] showed an IC50 of 10 to 100 µM.
